According to US20140309186A1, “Metabolomics-Based Identification of Disease-Causing Agents” (Georgia Tech Research Corporation, priority 2007, published 2014):

Assays:
OVCAR-3 cells [1] = conditions: literature; cited from earlier work
Jurkat cells [2] = conditions: literature search; cited from earlier work
Jurkat cells [3] = assay: Growth inhibition of Jurkat cells, resazurin-based in vitro toxicology assay (TOX-8); format: cell-based, Human; conditions: for activity at 100 µM: Homo sapiens, Jurkat, read-out: Jurkat cell growth as percentage of the untreated control
malignant erythroblasts = conditions: literature; cited from earlier work
RNA polymerase II = conditions: literature; cited from earlier work
HT29 colon cancer cells = conditions: literature; cited from earlier work
histone deacetylase 1 = target: T1, histone deacetylase 1 (Homo sapiens, UniProt Q13547); conditions: literature; cited from earlier work
T1 construct: host or cells: HT29 (cell context of the cited finding)

human lymphoblast cells = assay: Growth of human lymphoblast cells cultured in identical conditions; format: cell-based; conditions: 50 μM
Description: The positive association between lowered metabolite levels in Jurkat cells as predicted by CoMet and antiproliferative activity of the metabolite in that cell line is highly significant (Fisher's exact test two-tailed p-value=8.7×10^−6). Furthermore, when the effect of these metabolites on growth inhibition was tested in Jurkat and human lymphoblast cells cultured in identical conditions, a pattern of selectivity of the antiproliferative effect towards the cancer cell line became evident.

normal T lymphocytes = conditions: cited from earlier work
OVCAR-3 cells [4] = assay: Growth inhibition of OVCAR-3 cells, resazurin-based in vitro toxicology assay (TOX-8); format: cell-based, human; conditions: single metabolite, 100 μM, 72 hours
HeLa cell = conditions: literature; cited from earlier work
[5] = target: T2, tryptophanyl-tRNA synthetase (Homo sapiens, UniProt P23381); conditions: literature; cited from earlier work
T2 construct: host or cells: HeLa (cell context of the cited finding)
T2 sequence (P23381 1-471): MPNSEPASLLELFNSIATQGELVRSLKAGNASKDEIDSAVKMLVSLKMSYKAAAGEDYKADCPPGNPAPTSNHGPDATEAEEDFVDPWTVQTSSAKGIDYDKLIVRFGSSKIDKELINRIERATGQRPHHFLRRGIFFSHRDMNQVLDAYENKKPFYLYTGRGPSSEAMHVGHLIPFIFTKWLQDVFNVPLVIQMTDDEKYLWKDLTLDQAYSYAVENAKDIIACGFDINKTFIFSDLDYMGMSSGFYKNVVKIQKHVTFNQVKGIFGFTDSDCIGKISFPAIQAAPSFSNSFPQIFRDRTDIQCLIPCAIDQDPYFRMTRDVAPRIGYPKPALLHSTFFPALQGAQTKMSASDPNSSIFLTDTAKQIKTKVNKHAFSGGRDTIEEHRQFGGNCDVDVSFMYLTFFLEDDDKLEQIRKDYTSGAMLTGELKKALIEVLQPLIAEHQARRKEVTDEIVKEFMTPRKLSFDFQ

HL-60 cells = conditions: literature; cited from earlier work
[6] = single metabolite, 100 μM, 72 hour treatment, control = 100%, lower = stronger inhibition

T1 sequence (Q13547 whole entry): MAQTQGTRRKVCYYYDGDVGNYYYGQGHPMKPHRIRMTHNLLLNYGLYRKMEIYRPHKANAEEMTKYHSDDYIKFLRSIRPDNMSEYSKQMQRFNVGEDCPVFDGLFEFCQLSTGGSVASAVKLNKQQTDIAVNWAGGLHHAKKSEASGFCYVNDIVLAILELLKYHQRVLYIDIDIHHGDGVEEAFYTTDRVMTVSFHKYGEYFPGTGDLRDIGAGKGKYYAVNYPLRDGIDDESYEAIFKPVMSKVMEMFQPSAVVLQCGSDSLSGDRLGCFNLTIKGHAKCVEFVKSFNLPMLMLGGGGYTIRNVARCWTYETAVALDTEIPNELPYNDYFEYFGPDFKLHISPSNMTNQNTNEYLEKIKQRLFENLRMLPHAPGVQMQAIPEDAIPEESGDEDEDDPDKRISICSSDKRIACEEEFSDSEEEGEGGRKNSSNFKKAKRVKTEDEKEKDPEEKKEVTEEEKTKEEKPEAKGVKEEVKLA

COc1cc2c(cc1O)CC[C@@H]1[C@@H]2CC[C@]2(C)[C@@H](O)CC[C@@H]12 [2-methoxy-estradiol-17β]
anticancer activity in OVCAR-3 cells previously demonstrated (OVCAR-3 cells [1]): anticancer activity | anticancer activity in Jurkat cells known from the literature (Jurkat cells [2]): apoptotic agent

Nc1ncnc2c1ncn2[C@H]1C[C@H](O)[C@@H](CO)O1 [2′-deoxyadenosine]
anticancer activity in Jurkat cells known from the literature (Jurkat cells [2]): active in Jurkat cells

Nc1nc2c(ncn2[C@H]2C[C@H](O)[C@@H](CO)O2)c(=O)[nH]1 [2′-deoxyguanosine]
anticancer activity in Jurkat cells known from the literature (Jurkat cells [2]): active in Jurkat cells

OC[C@H]1O[C@@H](n2cnc3c(O)ncnc32)C[C@@H]1O [2′-deoxyinosine]
anticancer activity in Jurkat cells known from the literature (Jurkat cells [2]): active in Jurkat cells

N[C@@H](Cc1cc(I)c(Oc2ccc(O)c(I)c2)c(I)c1)C(=O)O [3′,3,5-triiodo-L-thyronine]
anticancer activity in OVCAR-3 cells previously demonstrated (OVCAR-3 cells [1]): anticancer activity

Cc1cc2nc[nH]c2cc1C [5,6-di-ethylbenzimidazole, 5,6-dimethylbenzimidazole]
activity at 100 µM (Jurkat cells [3]; [6]): 61.4%

Clc1cc2nc[nH]c2cc1Cl [5,6-dichlorobenzimidazole]
effect on malignant erythroblasts (malignant erythroblasts): induces differentiation | effect on RNA polymerase II (RNA polymerase II): inhibiting

CCCCCCCCCC(O)CCCCCCCC(=O)O (stereo not drawn) [9-hydroxystearic acid]
effect on HT29 colon cancer cells (HT29 colon cancer cells): arrests HT29 colon cancer cells in G0/G1 phase | effect on histone deacetylase 1 (histone deacetylase 1): inhibition

CC1=C(/C=C/C(C)=C/C=C/C(C)=C/C(=O)O)C(C)(C)CCC1 [all-trans-retinoic acid]
anticancer activity in OVCAR-3 cells previously demonstrated (OVCAR-3 cells [1]): anticancer activity

C=CC1=C(C)/C(=C/c2[nH]c(Cc3[nH]c(/C=C4\NC(=O)C(C)=C4C=C)c(C)c3CCC(=O)O)c(CCC(=O)O)c2C)NC1=O [bilirubin]
activity at 100 µM (Jurkat cells [3]; [6]): 21.3%

C=C1/C(=C\C=C2/CCC[C@]3(C)[C@@H]([C@H](C)CCCC(C)(C)O)CC[C@@H]23)C[C@@H](O)C[C@@H]1O [calcitriol]
anticancer activity in OVCAR-3 cells previously demonstrated (OVCAR-3 cells [1]): anticancer activity

CC(C)CCC[C@@H](C)[C@H]1CC[C@H]2[C@@H]3CC=C4C[C@@H](O)CC[C@]4(C)[C@H]3CC[C@]12C [cholesterol]
activity at 100 µM (Jurkat cells [3]; [6]): > 90%

O=C(O)CC(O)(CC(=O)O)C(=O)O [citric acid]
activity at 100 µM (Jurkat cells [3]; [6]): > 90%

C[C@]12CC[C@H](O)CC1=CC[C@@H]1[C@@H]2CC[C@]2(C)C(=O)CC[C@@H]12 [dehydroepiandrosterone]
effect on proliferation of lymphoblasts (in words) (human lymphoblast cells): stimulated the proliferation | effect on growth of Jurkat cells (in words) (Jurkat cells [3]; 50 μM): inhibited the growth

Nc1nc2ncc(CNc3ccc(C(=O)N[C@@H](CCC(=O)O)C(=O)O)cc3)nc2c(=O)[nH]1 [folic acid]
activity at 100 µM (Jurkat cells [3]; [6]): > 90%

CC(=O)CO [hydroxyacetone]
activity at 100 µM (Jurkat cells [3]; [6]): > 70%

CCCCC/C=C\C/C=C\CCCCCCCC(=O)O [linoleic acid]
anticancer activity in Jurkat cells known from the literature (Jurkat cells [2]): active in Jurkat cells

COc1ccc2[nH]cc(CCNC(C)=O)c2c1 [melatonin]
anticancer activity in Jurkat cells known from the literature (Jurkat cells [2]): active in Jurkat cells

CC(=O)C=O [methylglyoxal]
anticancer activity in Jurkat cells known from the literature (Jurkat cells [2]): active in Jurkat cells

NC(=O)c1cccnc1 [nicotinamide]
anticancer activity in Jurkat cells known from the literature (Jurkat cells [2]): active in Jurkat cells

CC(C)(CO)[C@@H](O)C(=O)NCCC(=O)O [pantothenic acid]
activity at 100 µM (Jurkat cells [3]; [6]): > 90%

CCCCC[C@H](O)/C=C/[C@H]1C(=O)C[C@H](O)[C@@H]1C/C=C\CCCC(=O)O [prostaglandin D2]
anticancer activity in Jurkat cells known from the literature (Jurkat cells [2]): induces apoptosis | effect on viability of normal T lymphocytes (normal T lymphocytes): without inhibiting the viability

Cc1cc2nc3c(=O)[nH]c(=O)nc-3n(C[C@H](O)[C@H](O)[C@H](O)CO)c2cc1C [riboflavin]
activity at 100 µM (Jurkat cells [3]; [6]): > 70%

N[C@@H](CS(=O)O)C(=O)O [sulfino-L-alanine, 3-sulfino-L-alanine]
effect on growth of Jurkat cells (in words) (Jurkat cells [3]; single metabolite, 100 μM, 72 hour treatment): did not inhibit the growth | effect on growth of OVCAR-3 cells (in words) (OVCAR-3 cells [4]): did not inhibit the growth

C[C@]12CC[C@H]3[C@@H](CCC4=CC(=O)CC[C@@]43C)[C@@H]1CC[C@@H]2O [testosterone]
anticancer activity in Jurkat cells known from the literature (Jurkat cells [2]): active in Jurkat cells

Cc1cn([C@H]2C[C@H](O)[C@@H](CO)O2)c(=O)[nH]c1=O [thymidine]
anticancer activity in Jurkat cells known from the literature (Jurkat cells [2]): antineoplastic agent

NCCc1c[nH]c2ccccc12 [tryptamine]
effect on HeLa cell growth (HeLa cell): effective inhibitor | effect on tryptophanyl-tRNA synthetase [5]: competitive inhibition

COc1cc(C(O)C(=O)O)ccc1O (stereo not drawn) [vanillylmandelic acid]
activity at 100 µM (Jurkat cells [3]; [6]): > 90%

CCCCCCCCCCCCCCCCC(O)C(=O)O (stereo not drawn) [α-hydroxystearic acid]
activity at 100 µM (Jurkat cells [3]; [6]): 67.8%

menaquinone
Jurkat cell growth as percentage of the untreated control (Jurkat cells [3]; [6]): 11.3% | effect on HL-60 cells (HL-60 cells): induce G0/G1 arrest, differentiation, and apoptosis

sphingolipid GD3
anticancer activity in Jurkat cells known from the literature (Jurkat cells [2]): active in Jurkat cells
